Earlier results on one compound are cited in patent US7196084B2, “Cdc25 phosphatase inhibitors” (Societe de Conseils de Recherches et d'Applications …, priority 2000, dated 2007).

pKi: −log10 of the molar value.

The target of data set [1] is T1, cdc25-B2 (Homo sapiens, UniProt P30305).
T1 sequence (P30305 1-539 isoform P30305-3): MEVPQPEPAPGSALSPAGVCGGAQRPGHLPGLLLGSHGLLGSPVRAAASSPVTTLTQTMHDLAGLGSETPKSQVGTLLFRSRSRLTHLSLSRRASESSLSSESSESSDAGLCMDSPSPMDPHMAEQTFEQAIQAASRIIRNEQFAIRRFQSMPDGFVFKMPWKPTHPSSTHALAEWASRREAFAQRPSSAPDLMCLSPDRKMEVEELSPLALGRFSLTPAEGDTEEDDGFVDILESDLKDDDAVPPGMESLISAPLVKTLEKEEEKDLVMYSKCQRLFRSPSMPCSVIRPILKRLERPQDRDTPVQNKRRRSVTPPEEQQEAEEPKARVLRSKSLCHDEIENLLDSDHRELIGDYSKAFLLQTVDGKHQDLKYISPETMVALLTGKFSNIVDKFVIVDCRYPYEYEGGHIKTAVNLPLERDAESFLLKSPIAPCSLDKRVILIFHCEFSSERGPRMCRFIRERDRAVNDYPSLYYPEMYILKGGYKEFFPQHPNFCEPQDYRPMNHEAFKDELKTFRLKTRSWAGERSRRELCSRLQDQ
Particulars: read-out: inhibition constant (Ki) on cdc25-B2; cited from earlier work.

Data set [2] addresses T2, cdc25-A (Homo sapiens, UniProt P30304).
T2 sequence (P30304 1-524): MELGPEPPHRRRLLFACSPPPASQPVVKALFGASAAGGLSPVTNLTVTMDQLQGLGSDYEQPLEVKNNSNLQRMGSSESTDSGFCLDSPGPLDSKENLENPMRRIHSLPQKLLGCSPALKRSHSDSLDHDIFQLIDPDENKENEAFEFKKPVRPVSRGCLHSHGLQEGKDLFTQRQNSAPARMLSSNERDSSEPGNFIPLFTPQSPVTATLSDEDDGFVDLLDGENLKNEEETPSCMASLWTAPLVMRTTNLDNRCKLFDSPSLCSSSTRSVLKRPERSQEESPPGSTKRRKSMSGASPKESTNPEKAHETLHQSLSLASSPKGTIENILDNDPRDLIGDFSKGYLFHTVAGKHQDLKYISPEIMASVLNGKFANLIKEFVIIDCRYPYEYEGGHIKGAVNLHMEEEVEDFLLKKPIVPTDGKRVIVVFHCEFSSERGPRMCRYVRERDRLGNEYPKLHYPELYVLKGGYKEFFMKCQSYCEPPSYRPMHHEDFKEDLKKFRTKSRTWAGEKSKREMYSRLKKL
The note with it: read-out: inhibition constant (Ki) on cdc25-A; cited from earlier work.

The target in data set [3] is T3, cdc25-C (Homo sapiens, UniProt P30307).
T3 sequence (P30307 1-473): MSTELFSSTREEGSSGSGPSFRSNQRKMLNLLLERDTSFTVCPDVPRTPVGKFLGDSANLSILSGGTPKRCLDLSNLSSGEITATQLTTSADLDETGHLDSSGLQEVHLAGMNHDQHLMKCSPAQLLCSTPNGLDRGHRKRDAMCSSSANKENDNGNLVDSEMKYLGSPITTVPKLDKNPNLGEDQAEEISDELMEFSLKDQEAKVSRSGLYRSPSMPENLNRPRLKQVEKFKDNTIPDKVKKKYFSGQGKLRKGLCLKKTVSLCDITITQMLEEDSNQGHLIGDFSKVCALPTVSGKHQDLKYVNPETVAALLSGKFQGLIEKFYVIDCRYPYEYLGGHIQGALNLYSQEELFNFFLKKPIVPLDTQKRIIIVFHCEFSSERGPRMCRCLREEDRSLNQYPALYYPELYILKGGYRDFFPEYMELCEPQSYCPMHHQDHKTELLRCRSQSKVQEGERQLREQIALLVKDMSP
Particulars: read-out: inhibition constant (Ki) on cdc25-C; cited from earlier work.

Take `CC1=C(SCCO)C(=O)c2ccccc2C1=O` [Cpd5]: the negative-log Ki (pKi) in data set [1] was 5.77; in data set [2], 4.82; in data set [3], 5.89.
